Source: PubChem BioAssay AID248 (DTP/NCI, 2004)
Values joined by “and” are separate entries in the source; they are usually repeats but may differ in a detail not shown here. Identical values can stand only once. Inconclusive results and toxic doses are left out.

Test system: L1210 leukemia ip in BDF1 mice, survival T/C
Experiment: NCI In Vivo Anticancer Drug Screen. Data for tumor model L1210 Leukemia (intraperitoneal) in B6D2F1 (BDF1) mice
Details: endpoint: mean survival time, higher = longer survival
Outline: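 Value reflects the ratio of survival in compound-treated mice to survival in vehicle-treated controls, with both groups carrying the same transplanted tumor.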

[1] = dose: 100.0 mg/kg/injection, schedule: Q01DX009 (ip), vehicle: saline with Tween-80
[2] = dose: 200.0 mg/kg/injection, schedule: Q01DX009 (ip), vehicle: saline with Tween-80
[3] = dose: 100.0 mg/kg/injection, schedule: Q04DX003 (ip), vehicle: saline
[4] = dose: 200.0 mg/kg/injection, schedule: Q04DX003 (ip), vehicle: saline
[5] = dose: 400.0 mg/kg/injection, schedule: Q04DX003 (ip), vehicle: saline
[6] = dose: 100.0 mg/kg/injection, schedule: Q01DX001 (ip), vehicle: carboxymethylcellulose (CMC)
[7] = dose: 200.0 mg/kg/injection, schedule: Q01DX001 (ip), vehicle: carboxymethylcellulose (CMC)
[8] = dose: 400.0 mg/kg/injection, schedule: Q01DX001 (ip), vehicle: carboxymethylcellulose (CMC)
[9] = dose: 100.0 mg/kg/injection, schedule: Q04DX003 (ip), vehicle: saline with Tween-80
[10] = dose: 200.0 mg/kg/injection, schedule: Q04DX003 (ip), vehicle: saline with Tween-80
[11] = dose: 400.0 mg/kg/injection, schedule: Q04DX003 (ip), vehicle: saline with Tween-80
[12] = dose: 100.0 mg/kg/injection, schedule: Q04DX002 (ip), vehicle: Klucel (hydroxypropylcellulose) (HPC)
[13] = dose: 200.0 mg/kg/injection, schedule: Q04DX002 (ip), vehicle: Klucel (hydroxypropylcellulose) (HPC)
[14] = dose: 400.0 mg/kg/injection, schedule: Q04DX002 (ip), vehicle: Klucel (hydroxypropylcellulose) (HPC)

CCC(Br)Cc1ccccc1 (stereo not drawn)
T/C (dose: 2.0 mg/kg/injection, schedule: Q01DX015 (ip), vehicle: saline): 91 % of control
T/C (dose: 4.0 mg/kg/injection, schedule: Q01DX015 (ip), vehicle: saline): 91 % of control
T/C (dose: 8.0 mg/kg/injection, schedule: Q01DX015 (ip), vehicle: saline): 91 % of control
T/C (dose: 16.0 mg/kg/injection, schedule: Q01DX015 (ip), vehicle: saline): 95 % of control

Cc1cc(OCCOC(=O)Nc2ccc(C)c([N+](=O)[O-])c2)ccc1Cl
T/C (dose: 50.0 mg/kg/injection, schedule: Q01DX009 (ip), vehicle: saline with Tween-80): 93 % of control
T/C [1]: 87 % of control
T/C [2]: 87 % of control

CCC(=O)CC1CCCC(CC(=O)CC)N1C (stereo not drawn)
T/C (dose: 9.5 mg/kg/injection, schedule: Q01DX001 (ip), vehicle: saline): 96 % of control
T/C (dose: 19.0 mg/kg/injection, schedule: Q01DX001 (ip), vehicle: saline): 104 % of control
T/C (dose: 38.0 mg/kg/injection, schedule: Q01DX001 (ip), vehicle: saline): 102 % of control

CN1C2CC(=O)CC1C(O)C2 (stereo not drawn)
T/C (dose: 100.0 mg/kg/injection, schedule: Q01DX001 (ip), vehicle: saline): 103 % of control
T/C (dose: 400.0 mg/kg/injection, schedule: Q01DX001 (ip), vehicle: saline): 90 % of control

CC(/C=N/N(C)C)=N\N(C)C
T/C [3]: 92 % of control
T/C [4]: 102 % of control

CCOC(=O)N(CCC(=O)OC(C)(C)C)CC(=O)OC(C)(C)C
T/C (dose: 75.0 mg/kg/injection, schedule: Q01DX001 (ip), vehicle: saline): 92 % of control
T/C (dose: 150.0 mg/kg/injection, schedule: Q01DX001 (ip), vehicle: saline): 95 % of control
T/C (dose: 300.0 mg/kg/injection, schedule: Q01DX001 (ip), vehicle: saline): 101 % of control

CCC1CCCC(C(=O)O)N1 (stereo not drawn)
T/C (dose: 100.0 mg/kg/injection, schedule: Q01DX009 (ip), vehicle: saline): 101 % of control
T/C [3]: 95 % of control
T/C (dose: 200.0 mg/kg/injection, schedule: Q01DX009 (ip), vehicle: saline): 95 % of control
T/C [4]: 95 % of control
T/C (dose: 400.0 mg/kg/injection, schedule: Q01DX009 (ip), vehicle: saline): 100 % of control
T/C [5]: 105 % of control

COc1cc2c(cc1OC)C(Cc1ccc([N+](=O)[O-])cc1)=[N+](C)CC2
T/C [6]: 103 % of control
T/C [7]: 105 % of control
T/C [8]: 108 % of control

O=S1(=O)CCCC1C(O)(c1ccccc1)c1ccccc1 (stereo not drawn)
T/C [9]: 97 % of control
T/C [10]: 92 % of control
T/C [11]: 94 % of control

O=C(NCCCCCCCCNC(=O)Nc1ccc(C2=NCCN2)cc1)Nc1ccc(C2=NCCN2)cc1
T/C (dose: 25.0 mg/kg/injection, schedule: Q01DX Z (ip), vehicle: carboxymethylcellulose (CMC)): 117 % of control
T/C (dose: 62.0 mg/kg/injection, schedule: Q01DX Z (ip), vehicle: carboxymethylcellulose (CMC)): 151 % of control
T/C (dose: 62.0 mg/kg/injection, schedule: Q01DX Z (oral), vehicle: carboxymethylcellulose (CMC)): 103 % of control
T/C (dose: 100.0 mg/kg/injection, schedule: Q01DX Z (ip), vehicle: carboxymethylcellulose (CMC)): 187 % of control
T/C (dose: 125.0 mg/kg/injection, schedule: Q01DX Z (ip), vehicle: carboxymethylcellulose (CMC)): 157 % of control
T/C (dose: 125.0 mg/kg/injection, schedule: Q01DX Z (oral), vehicle: carboxymethylcellulose (CMC)): 111 % of control
T/C (dose: 150.0 mg/kg/injection, schedule: Q01DX Z (ip), vehicle: carboxymethylcellulose (CMC)): 213 % of control
T/C (dose: 250.0 mg/kg/injection, schedule: Q01DX Z (ip), vehicle: carboxymethylcellulose (CMC)): 114 % of control
T/C (dose: 250.0 mg/kg/injection, schedule: Q01DX Z (oral), vehicle: carboxymethylcellulose (CMC)): 109 % of control
T/C (dose: 500.0 mg/kg/injection, schedule: Q01DX Z (oral), vehicle: carboxymethylcellulose (CMC)): 120 % of control

CC1(C)CCc2cc3c(O)c(-c4ccccc4)c(=O)oc3cc2O1
T/C [3]: 97 % of control
T/C [4]: 91 % of control
T/C [5]: 91 % of control

COC(=O)c1cc(Cl)cc(NC(C)=O)c1Cl
T/C [12]: 97 % of control
T/C [13]: 97 % of control
T/C [14]: 97 % of control

CC(=O)c1cccc(NC(=O)Oc2cc(C)c(Cl)c(C)c2)c1
T/C (dose: 100.0 mg/kg/injection, schedule: Q01DX001 (ip), vehicle: saline with Tween-80): 97 % of control
T/C [1]: 94 % of control and 92 % of control
T/C (dose: 100.0 mg/kg/injection, schedule: Q04DX002 (ip), vehicle: saline with Tween-80): 94 % of control and 101 % of control
T/C [9]: 93 % of control
T/C (dose: 200.0 mg/kg/injection, schedule: Q01DX001 (ip), vehicle: saline with Tween-80): 100 % of control
T/C [2]: 88 % of control and 89 % of control
T/C (dose: 200.0 mg/kg/injection, schedule: Q04DX002 (ip), vehicle: saline with Tween-80): 93 % of control and 89 % of control
T/C [10]: 87 % of control
T/C (dose: 400.0 mg/kg/injection, schedule: Q01DX001 (ip), vehicle: saline with Tween-80): 98 % of control
T/C (dose: 400.0 mg/kg/injection, schedule: Q01DX009 (ip), vehicle: saline with Tween-80): 91 % of control
T/C (dose: 400.0 mg/kg/injection, schedule: Q04DX002 (ip), vehicle: saline with Tween-80): 96 % of control and 101 % of control
T/C [11]: 90 % of control

C=C1C(=O)OC2C3OC(C)(CCC(O)C3COC(C)=O)CC(OC(=O)/C(=C/C)COC(C)=O)C12 (stereo not drawn)
T/C (dose: 6.25 mg/kg/injection, schedule: Q01DX009 (ip), vehicle: Klucel (hydroxypropylcellulose) (HPC)): 100 % of control
T/C (dose: 12.5 mg/kg/injection, schedule: Q01DX009 (ip), vehicle: Klucel (hydroxypropylcellulose) (HPC)): 97 % of control
T/C (dose: 25.0 mg/kg/injection, schedule: Q01DX009 (ip), vehicle: Klucel (hydroxypropylcellulose) (HPC)): 103 % of control

O=C(C(=O)c1ccc(O)cc1)c1ccccc1
T/C [6]: 103 % of control
T/C [7]: 97 % of control
T/C [8]: 97 % of control

CCOC(=O)CNC(=O)Nc1ccccc1F
T/C (dose: 50.0 mg/kg/injection, schedule: Q01DX009 (ip), vehicle: gum acacia): 93 % of control and 97 % of control
T/C (dose: 100.0 mg/kg/injection, schedule: Q01DX001 (ip), vehicle: gum acacia): 101 % of control and 102 % of control
T/C (dose: 100.0 mg/kg/injection, schedule: Q04DX002 (ip), vehicle: gum acacia): 96 % of control and 97 % of control
T/C (dose: 100.0 mg/kg/injection, schedule: Q04DX003 (ip), vehicle: gum acacia): 94 % of control and 108 % of control
T/C (dose: 200.0 mg/kg/injection, schedule: Q01DX001 (ip), vehicle: gum acacia): 100 % of control and 102 % of control
T/C (dose: 200.0 mg/kg/injection, schedule: Q04DX002 (ip), vehicle: gum acacia): 93 % of control and 94 % of control
T/C (dose: 200.0 mg/kg/injection, schedule: Q04DX003 (ip), vehicle: gum acacia): 94 % of control and 101 % of control
T/C (dose: 400.0 mg/kg/injection, schedule: Q01DX001 (ip), vehicle: gum acacia): 95 % of control and 105 % of control
T/C (dose: 400.0 mg/kg/injection, schedule: Q01DX009 (ip), vehicle: gum acacia): 90 % of control and 91 % of control
T/C (dose: 400.0 mg/kg/injection, schedule: Q04DX002 (ip), vehicle: gum acacia): 96 % of control and 87 % of control
T/C (dose: 400.0 mg/kg/injection, schedule: Q04DX003 (ip), vehicle: gum acacia): 95 % of control and 96 % of control

Cc1ccc(C(=O)Nc2ccc([N+](=O)[O-])cc2)cc1
T/C (dose: 100.0 mg/kg/injection, schedule: Q04DX003 (ip), vehicle: Klucel (hydroxypropylcellulose) (HPC)): 88 % of control
T/C (dose: 200.0 mg/kg/injection, schedule: Q04DX003 (ip), vehicle: Klucel (hydroxypropylcellulose) (HPC)): 100 % of control
T/C (dose: 400.0 mg/kg/injection, schedule: Q04DX003 (ip), vehicle: Klucel (hydroxypropylcellulose) (HPC)): 98 % of control

CCCCSP(=O)(SCCCC)c1ccccc1
T/C (dose: 100.0 mg/kg/injection, schedule: Q01DX001 (ip), vehicle: Klucel (hydroxypropylcellulose) (HPC)): 100 % of control
T/C (dose: 200.0 mg/kg/injection, schedule: Q01DX001 (ip), vehicle: Klucel (hydroxypropylcellulose) (HPC)): 102 % of control
T/C (dose: 400.0 mg/kg/injection, schedule: Q01DX001 (ip), vehicle: Klucel (hydroxypropylcellulose) (HPC)): 95 % of control

CCNc1nc(Cl)nc(C(Cl)(Cl)Cl)c1Cl (tested in a mixture with another compound)
T/C [12]: 104 % of control
T/C [13]: 96 % of control
T/C [14]: 100 % of control
